Laboratory results: US12325646B2, “Fertigation water treatment” (UNIVERSITY OF GUELPH, priority 2019, dated 2025)
Converted amounts (≈) assume the structure as drawn. “And” between values parts separate entries of the source, which are not always exact repeats. Identical values can stand only once. “Also recorded” adds a separate entry of the source. Like-named read-outs stand apart in the source and are kept apart here.

Assays:
[1] = Electrochemical treatment of chemical standards in batch cell (DSA or BDD anodes); assay type: physicochemical; set-up: reduction of compound in solution: concentration or dose not given beside the values; conditions: for NPOC decrease / TN decrease: 2.27 mA/cm^2, up to 6-minute contact time, batch cell, 20 mg/L chloride
Experimental: Initial water treatment was performed by treating the solution by batch cell using the DSA and BDD anodes, as well as stainless steel (SS) cathodes. The experiment used a 2 L beaker and filled the beaker with 1.8 L of deionized water and dissolved the chemical standards glyphosate (45521, Sigma-Aldrich, USA) or paclobutrazol (46046, Sigma-Aldrich, USA) for separate treatments. The solution was constantly mixed using a magnetic stirrer (220T, Fisher Scientific, Canada) and bar during treatment with chemical standards. Samples containing glyphosate and paclobutrazol standards were submitted to the Agriculture and Food Laboratory (University of Guelph) to quantify samples using LC-MS/MS. The mean quantifiable limit for the analytical method was 8 μg/L for glyphosate, AMPA, and paclobutrazol. The non-purgeable organic carbon (NPOC) and total nitrogen (TN) of the solution were determined using a Shimadzu TOC-Vpn & TNM-1 analyzer. A calibration curve (R^2=0.99) was produced before performing the sample analysis using TOC and TN standards.
The degradation of both glyphosate (8.5 mg/L) and paclobutrazol (12 mg/L) was conducted with the use of electrochemical systems for a direct comparison on their efficacies in a batch cell configuration. […] The NPOC and TN had larger decreases between the 3 and 6-minute contact time with the DSA electrodes for glyphosate, while the changes were more subtle using BDD electrodes.

[2] = system: Lemna minor; test: Water treatment of commercial pesticide solutions in the EFC followed by Lemna minor growth test; assay type: in vivo
[3] = system: Lemna minor; test: Lemna minor bioassay (dose-response, 7-day growth); assay type: in vivo; conditions: for EC50: 168 h, read-out: EC50 dose from dose-response analysis of Lemna minor growth
Source text: A sterile culture of Lemna minor was obtained from the laboratory of Dr. Ryan Prosser (University of Guelph, School of Environmental Science). The culture was transferred to a 1 L Erlenmeyer flask containing a ½ strength Hoagland solution. The cultures were transferred to a growth chamber and were left for a growing period of 7 days. After the growth period, the Erlenmeyer flasks were brought to the lab to use the healthy plants for bioassay and water treatment experiments.
The temperature and humidity sensors were built in house by the Controlled Environment Systems Research Facility (CESRF) at the University of Guelph. The growth chamber conditions for humidity and temperature were recorded using an Acer Aspire 7750 laptop (P7YEO, Acer, Taiwan) and using the Termite software for data logging (version 3.4). The temperature was maintained at 25.68±0.02° C. and the relative humidity was 38.34±0.05%. Lumigrow pro 325 LED lights (LU60001, Lumigrow, USA) were used at a 80:10:10 ratio of Red:Blue:White as overhead lighting for plants (FIGS. 38A & 38B). Furthermore, a grid system inside the growth chamber with 36 grid boxes were used to place Erlenmeyer flasks in a completely randomized design (FIG. 38C). Each ‘grid’ was measured for photosynthetically active radiation (PAR) using a modular spectrometer (USB2000+, Ocean Optics Inc., USA). This allowed to account for random differences attributed to light intensity within the growth chamber. A heat map is generated with this information and in the middle of the ‘grid box’ there was a maximum intensity of […] (FIG. 39).
The analysis of dose-response curves for affecting the growth of Lemna minor was determined using the ‘drc’ package (v. 3.0-1, Christian Ritz, 2016) in the statistical program RStudio (v. 1.0.153, RStudio Inc., USA). The program was used to determine the EC 50 for each measured parameter for plant health and reproduction of the number of plants, number of fronds, and the dry weights of plants contained in each flask.
All solutions were treated with the four different water treatment methods and 75 mL of effluent solution was collected and added in 250 mL Erlenmeyer flasks. Negative control samples only contained 75 mL of deionized water, while all other treatments (positive control, Ozone, AOP, DSA, and BDD) contained 75 mL of the treated and non-treated solution. In a separate 3-litre beaker, a full-strength Hoagland solution was prepared and mixed with a magnetic stirrer (220T, Fisher Scientific, Canada). For each of the Erlenmeyer flasks containing the treated solutions, 75 mL of the Hoagland solution was added into each flask. […] Lemna minor that were previously cultured and acclimated to the ‘Grid box’ were then added to each flask. Two Lemna minor plants with three fronds each were added to flasks for the experiment. All 5 treatments contained 3 Erlenmeyer flasks giving a total of […] and the experiment was performed in triplicate. All of the flasks were placed at random inside the growth chamber within each grid and recorded their location. The pH and electrical conductivity of the solutions were also measured after the 7-day growth period.
Significant differences were only observed at the concentration of 15 mg/L of glyphosate for the final number of fronds and the dry weight of plants (FIGS. 41A & 41B). […] Noticeable differences such as the number of plants, lighter colour of fronds, and spindly roots can be visualized in comparison with the control (FIG. 42A) to the presence of 15 mg/L of glyphosate (FIG. 42B).

[4] = BDD electrodes, 2.27 mA/cm^2, 6-minute contact time, LC-MS/MS
[5] = DSA electrodes, 2.27 mA/cm^2, 6-minute contact time, LC-MS/MS

Q: What does the source list for `NCP(=O)(O)O` [AMPA, aminomethylphosphonic acid]?
A: increase of AMPA in glyphosate solution ([1]; BDD electrodes, 2.27 mA/cm^2, 0 to 6-minute contact time): 0.10 mg/L; AMPA concentration after treatment of glyphosate solution ([1]; BDD electrodes, 2.27 mA/cm^2, 6 minutes, increased from 0.009): 0.11 mg/L

Q: Which “concentration remaining after treatment, inferred from plant growth” value ([2]; Roundup, 7 mg/L glyphosate, DSA electrodes, 2.27 mA/cm^2, 1-minute contact time) does the source give for `O=C(O)CNCP(=O)(O)O` [glyphosate, N-(phosphonomethyl)glycine] here?
A: lower than 2.5 mg/L

Q: And the “concentration with significant differences in final number of fronds and dry weight of plants” value ([3]; Glyfos, 7 days growth)?
A: 15000 ng/mL

Q: And the EC50 ([3]; Lemna minor)?
A: ~9 µg/mL (≈ 53.2 µM)

Q: What about the “reduction of compound in solution” value [1, 4] of the same molecule?
A: 72.47% and 72%

Q: What about the NPOC decrease ([1]; BDD electrodes) of the same molecule?
A: 19.73%

Q: What about the TN decrease ([1]; BDD electrodes) of the same molecule?
A: 32.61% and 32%

Q: And the NPOC decrease ([1]; BDD electrodes, listed as Glyphosate)?
A: 20%

Q: And the “level remaining in solution after treatment (below detection limit)” value [1, 5]?
A: < 8 ng/mL

Q: And the NPOC decrease ([1]; DSA electrodes)?
A: 16.18% and 16%

Q: And the TN decrease ([1]; DSA electrodes)?
A: 85.97% and 86%

Q: For `CC(C)(C)[C@@H](O)[C@@H](Cc1ccc(Cl)cc1)n1cncn1` (racemic) [paclobutrazol], which “concentration remaining after treatment, inferred from plant growth parameters” value ([2]; Bonzi, 3 mg/L paclobutrazol, BDD electrodes, recirculated 3 passes, 18 minutes total contact) is on record?
A: lower than 0.05 mg/L

Q: And the EC50 ([3]; Lemna minor, 7 days in growth chamber, glyphosate as Glyfos, paclobutrazol as Bonzi, drc package)?
A: 0.01 µg/mL (≈ 0.034 µM)

Q: And the LOEC levels ([3]; Lemna minor, in vivo, 7 days)?
A: 0.01 mg/L

Q: And the “concentration with significant differences for all measured parameters in the health of Lemna minor” value ([3]; Lemna minor, in vivo, 7 days)?
A: 50 ng/mL

Q: What about the “effect on plant physiological and reproductive health parameters vs control” value ([3]; in vivo) of the same molecule?
A: Significant decreases were observed for all tested concentrations

Q: What about the “reduction of compound in solution” value [1, 4] of the same molecule?
A: 80.94% and 81%

Q: And the NPOC decrease ([1]; BDD electrodes)?
A: 18.41% and 18%

Q: What about the TN decrease ([1]; BDD electrodes) of the same molecule?
A: 22.58% and 23%

Q: And the “reduction of compound in solution” value [1, 5]?
A: 28.29% and 28%

Q: And the NPOC decrease ([1]; DSA electrodes)?
A: unaffected; also recorded: no significant effect

Q: What about the TN decrease ([1]; DSA electrodes) of the same molecule?
A: 7.12% and 7%
